Experimental findings from patent publication US20110263647A1 (AMGEN INC., priority 2009, published 2011) are described below.

In one data set the target is T1, PKBα (Homo sapiens, UniProt P31749).
T1 construct: fused on or other part: His6 tag is likely on the Upstate products
Kind of data set: PKB kinase assay (P33-labeled ATP, peptide substrate, filter plate). The data set is classed as biochemical. Particulars: with respect to PKBα. The text has this: The kinase assay for evaluating PKB activity comprises active PKB enzymes, a PKB specific substrate, and P^33-labeled ATP. Two form of PKBα enzymes were used, the full length PKBα and a kinase domain of PKBα with pleckstrin domain (amino acids 1-117) deleted. Both PKB enzymes were obtained from Upstate cell signaling solutions (Cat.# 14-276 and 14-341). The PKB substrate used is a synthetic peptide (ARKRERTYSFGHHA (SEQ ID NO: 1)) as described in Obata et al., J. Biol. Chem. 275 (46), 36108-36115 (2000). The phosphorylated substrate was captured by a phosphocellulose membrane filter plate (MILLIPORE) and measured by a Wallac Microbeta liquid scintillation counter (Perkin Elmer). Table 1 provides the IC50 values obtained for each of the examples with respect to PKBα.

Data set [1] can be described thus: In vivo pharmacokinetics, IV and oral gavage. On the set-up: species or system male Sprague-Dawley rats. The note with it: male, Sprague-Dawley, plasma, rat, IV 0.5 mg/kg. How it is done: In vivo pharmacokinetic parameters were determined by measuring systemic plasma exposure in male Sprague-Dawley rats (Charles River Laboratories or Taconic, Oxnard, Calif.) by intravenous administration (N=3 fed rats: 2 mg/kg tail vein injection in DMSO) and oral gavage (N=3 fasted rats: 5 mg/kg in 1% Tween 80-2% HPMC-97% deionized water-pH 2.0 vehicle) (Comparative Example 18′ was only dosed IV and at 0.5 mg/kg). DMSO was obtained from Mallinckrodt Inc.; Tween 80 was obtained from Croda; HPMC is Methocel E50 Premium LV, obtained from Dow Excipients. Following oral administration, blood was drawn (250 μL) at 0.25, 0.5, 1, 2, 4, 6, 8, 12, and 16 hours. Following iv administration, blood was drawn (250 μL) at 0.083, 0.25, 0.5, 1, 2, 4, 6, 8, and 16 hours. Blood samples were drawn using a Culex® In Vivo Sampling System (BASi) and collected in BD Microtainer® tubes containing Lithium Heparin (BD). Plasma was obtained by centrifugation of blood at 14000 g and 2-8° C. for five minutes using an Eppendorf 5417R Centrifuge System. Plasma samples were mixed with 2× volume of acetonitrile (Sigma-Aldrich, St. Louis, Mo.). The mixture was stirred briefly using a vortex mixer and then centrifuged at 2867 g for 5 minutes in a Beckman Coulter Allegra 25R equipped with a Type S5700 rotor. The supernatant was removed and diluted 2× with mobile phase A (5/94.9/0.1 v/v/v MeOH/water/AcOH). Plasma concentrations were determined using liquid chromatography/tandem mass spectrometry, with electrospray ionization (ESI) and multiple reaction monitoring in the positive ion mode (Sciex API 3000 mass spectrometer connected to a Shimadzu LC-20AD pump and a LEAP PAL autosampler. Typical conditions used for HPLC were: mobile phase A=5/94.9/0.1 v/v/v MeOH/water/AcOH and mobile phase B=95/4.9/0.1 v/v/v MeOH/water/AcOH; HPLC column was a Varian MonoChrom C18.3μ for 2×30 mm and 51.1 for 2×50 mm) Instrument response was calibrated by a standard curve over 0.1-2000 ng/mL concentration range, and the lower limit of quantitation was 0.1-2.5 ng/mL. Peak areas were integrated on a Windows 2000 computer using the Sciex program Analyst® (Version 1.4.1). Following peak area integration, the data were exported to the software package (Watson® Non-GLP PROD (Version 7.0.0.01, Thermo Electron Corp., Waltham, Mass.)), where concentrations were determined by a weighted linear regression of peak area versus the nominal concentrations of the calibration standards. Calculations were performed on unrounded numbers. The Watson® Non-GLP PROD software was used to determine precision and accuracy for the calibration standards. Noncompartmental analysis of plasma concentration data was used to generate PK parameters such as clearance (CL, L/h/kg), volume of distribution (Vss, L/kg), area under the curve (AUC, ng·h/mL) and secondary parameters such as half-life (t1/2, h) and oral bioavailability (% F, %). This was done using WinNonlin Enterprise software (Version 5.1.1, from Pharsight Corp., Mountain View, Calif.). References for pharmacokinetic analysis include: Gabrielsson and Weiner (1997) Pharmacokinetic and Pharmacodynamic Data Analysis Concepts and Applications, 2nd ed., Swedish Pharmaceutical Press, Stockholm; Gibaldi and Perrier (1982) Pharmacokinetics, 2nd ed., Marcel Dekker, New York. Rowland and Tozer (1995) Clinical Pharmacokinetics: Concepts and Applications, 3rd ed., Lippincott Williams & Wilkins, Philadelphia.

Where a name gives a salt, the structure may show the parent alone.

T1 sequence (P31749 118-472 limits assumed): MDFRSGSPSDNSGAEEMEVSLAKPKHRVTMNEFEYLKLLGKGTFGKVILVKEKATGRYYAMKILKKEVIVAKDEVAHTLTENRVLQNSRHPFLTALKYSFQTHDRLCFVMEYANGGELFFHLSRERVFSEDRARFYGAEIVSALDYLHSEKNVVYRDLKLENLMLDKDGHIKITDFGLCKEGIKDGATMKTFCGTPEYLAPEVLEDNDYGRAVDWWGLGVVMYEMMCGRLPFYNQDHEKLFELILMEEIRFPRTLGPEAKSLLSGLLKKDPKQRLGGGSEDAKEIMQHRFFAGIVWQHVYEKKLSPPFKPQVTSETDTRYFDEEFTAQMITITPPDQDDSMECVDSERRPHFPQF

In general, IC50 refers to the point on the concentration scale where inhibition reaches its midpoint. Low readings indicate inhibition by little substance, high ones a need for much substance. In turn, `C[C@@H](c1ccc(C(F)(F)F)nc1)[C@H](N)CNc1nc(CO)c(-c2ccc3cnc(F)cc3c2)s1` [Example 12, (2-((2S,3S)-2-Amino-3-(6-(trifluoromethyl)pyridin-3-yl)butylamino)-5-(3-fluoroisoquinolin-6-yl)thiazol-4-yl)methanol] yielded an IC50 against PKBα of less than 50 nM.

`N[C@H](CNc1ncc(-c2ccc3cnc(F)cc3c2)s1)CN1CCCC(C(F)(F)F)C1` (stereo partly drawn) [Example 30, N—((R)-2-Amino-3-((3S)-(trifluoromethyl)piperidin-1-yl)propyl)-5-(3-fluoroisoquinolin-6-yl)thiazol-2-amine] returned an IC50 against PKBα of 1000 to 10000 nM.

`N[C@H](CNc1ncc(-c2ccc3cnc(F)cc3c2)s1)Cc1cnc(F)c(Cl)c1` [Example 40, N—((S)-2-Amino-3-(5-chloro-6-fluoropyridin-3-yl)propyl)-5-(3-fluoroisoquinolin-6-yl)thiazol-2-amine]: the IC50 against PKBα fell in the range of 50 to 1000 nM.

At PKBα, `N[C@H](CNc1ncc(-c2ccc3cnc(F)cc3c2)s1)Cn1cnc(C(F)(F)F)c1` [Example 28, N—((R)-2-Amino-3-(4-(trifluoromethyl)-1H-imidazol-1-yl)propyl)-5-(3-fluoroisoquinolin-6-yl)thiazol-2-amine] had an IC50 of 50 to 1000 nM.

At PKBα, `N[C@H](CNc1ncc(-c2ccc3cnc(F)cc3c2)s1)[C@@H](O)c1ccc(C(F)(F)F)cc1` [Example 37, (1S,2R)-2-Amino-3-((5-(3-fluoro-6-isoquinolinyl)-1,3-thiazol-2-yl)amino)-1-(4-(trifluoromethyl)phenyl)-1-propanol trifluoroacetate] yielded an IC50 of less than 50 nM.

On PKBα, `N[C@H](CNc1nc(CO)c(-c2ccc3cnc(F)cc3c2)s1)Cc1ccc(C(F)(F)F)nc1` [Example 16, (2-((S)-2-Amino-3-(6-(trifluoromethyl)pyridin-3-yl)propylamino)-5-(3-fluoroisoquinolin-6-yl)thiazol-4-yl)methanol] returned an IC50 of less than 50 nM.

Take `NC(CNc1ncc(-c2ccc3cnc(F)cc3c2)s1)Cn1ccc(C(F)(F)F)n1` (stereo in doubt) [Example 29, N—((S)-2-Amino-3-(3-(trifluoromethyl)-1H-pyrazol-1-yl)propyl)-5-(3-fluoroisoquinolin-6-yl)thiazol-2-amine]: the IC50 against PKBα is 50 to 1000 nM.

Consider `CC(F)(F)c1ccc(C[C@H](N)CNc2ncc(-c3ccc4cnc(F)cc4c3)s2)cc1` [Example 3, N—((S)-2-Amino-3-(4-(1,1-difluoroethyl)phenyl)propyl)-5-(3-fluoroisoquinolin-6-yl)thiazol-2-amine], for which, on PKBα, the IC50 is less than 50 nM.

The Cmax is the maximum level reached in the sampled fluid or tissue. Take `COCc1nc(NC[C@@H](N)Cc2ccc(C(F)(F)F)nc2)sc1-c1ccc2cnccc2c1` [Comparative Example 18′, (S)—N-1-(5-(Isoquinolin-6-yl)-4-(methoxymethyl)thiazol-2-yl)-3-(6-(trifluoromethyl)pyridin-3-yl)propane-1,2-diamine, reference compound]: the clearance in data set [1] was 237 mL/min/kg. For the same molecule, the AUC(0-t) in data set [1] (read-out: IV AUClast) was 33 ng·h/mL. Also, the Cmax in data set [1] (read-out: IV Cmax) is 73 ng/mL. Moreover, in data set [1] (read-out: Vss), the Vd came to 6.44 L/kg.

The molecule `COCc1nc(NC[C@@H](N)Cc2ccc(C(C)(F)F)nc2)sc1-c1ccc2cnc(F)cc2c1` [Example 6, N—((S)-2-Amino-3-(6-(1,1-difluoroethyl)pyridin-3-yl)propyl)-5-(3-fluoroisoquinolin-6-yl-4-(methoxymethyl)thiazol-2-amine trifluoroacetate] gave an IC50 at PKBα of less than 50 nM.

Turning to `CC(C)(C)OC(=O)N[C@@H](Cc1ccc(C(F)F)cc1)CN(C(=O)OC(C)(C)C)c1ncc(-c2ccc3cnc(F)cc3c2)s1` [Example 41, tert-Butyl ((2S)-2-((tert-butoxycarbonyl)amino)-3-(4-(difluoromethyl)phenyl)propyl)(5-(3-fluoro-6-isoquinolinyl)-1,3-thiazol-2-yl)carbamate], on PKBα, the IC50 lay within 1000 to 10000 nM.

In the case of `COC(=O)c1nc(NC[C@@H](N)Cc2ccc(C(F)(F)F)cc2)sc1-c1ccc2cnc(F)cc2c1` [Example 20, Methyl 2-((S)-2-amino-3-(4-(trifluoromethyl)phenyl)propylamino)-5-(3-fluoroisoquinolin-6-yl)thiazole-4-carboxylate], at PKBα, the IC50 is less than 50 nM.

Consider `CC(C)(C)OC(=O)N[C@@H](Cc1ccc(C(F)(F)F)nc1)CN(C(=O)OC(C)(C)C)c1ncc(-c2ccc3cnc(F)cc3c2)s1` [Example 1, tert-Butyl ((2S)-2-((tert-butoxycarbonyl)amino)-3-(6-(trifluoromethyl)-3-pyridinyl)propyl)(5-(3-fluoro-6-isoquinolinyl)-1,3-thiazol-2-yl)carbamate], for which the IC50 against PKBα fell in the range of 1000 to 10000 nM.

On PKBα, `CNC(=O)c1nc(NC[C@@H](N)Cc2ccc(C(F)(F)F)nc2)sc1-c1ccc2cnc(F)cc2c1` [Example 17] showed an IC50 of 50 to 1000 nM.

For the molecule `N[C@@H](CNc1ncc(-c2ccc3cnc(F)cc3c2)s1)Cc1ccc(C(F)(F)F)nc1` [Example 47, (2R)—N^1-(5-(3-Fluoro-6-isoquinolinyl)-1,3-thiazol-2-yl)-3-(6-(trifluoromethyl)-3-pyridinyl)-1,2-propanediamine], on PKBα, the IC50 fell in the range of 1000 to 10000 nM.

In the case of `CS(=O)(=O)C[C@@H](c1ccc(C(F)(F)F)cc1)[C@H](N)CNc1ncc(-c2ccc3cnc(F)cc3c2)s1` [Example 34, N-((2S,3S)-2-Amino-4-(methylsulfonyl)-3-(4-(trifluoromethyl)phenyl)butyl)-5-(3-fluoroisoquinolin-6-yl)thiazol-2-amine], the IC50 at PKBα is 50 to 1000 nM.

On PKBα, `COCc1nc(CC[C@@H](N)Cc2ccc(C(F)(F)F)nc2)sc1-c1ccc2cnc(F)cc2c1` [Example 49, (2R)-4-(5-(3-Fluoroisoquinolin-6-yl)-4-(methoxymethyl)thiazol-2-yl)-1-(6-(trifluoromethyl)pyridin-3-yl)butan-2-amine] showed an IC50 of less than 50 nM.

On PKBα, `Cn1ccc(C[C@H](N)CNc2ncc(-c3ccc4cnc(F)cc4c3)s2)cc1=O` [Example 46] had an IC50 of 50 to 1000 nM.

On PKBα, `N[C@H](CNc1ncc(-c2ccc3cnc(F)cc3c2)s1)Cc1ccc(Cl)c(Cl)c1` [Example 14, N—((S)-2-amino-3-(3,4-dichlorophenyl)propyl)-5-(3-fluoroisoquinolin-6-yl)thiazol-2-amine] showed an IC50 of less than 50 nM.

Regarding `CC#Cc1nc(NC[C@@H](N)Cc2ccc(C(F)(F)F)nc2)sc1-c1ccc2cnc(F)cc2c1` [Example 35, N—((S)-2-Amino-3-(6-(trifluoromethyl)pyridin-3-yl)propyl)-5-(3-fluoroisoquinolin-6-yl)-4-(prop-1-ynyl)thiazol-2-amine], the 50% inhibitory concentration (IC50) against PKBα is less than 50 nM.

For `CC(F)(F)c1ccc(C[C@H](N)CNc2nc(CO)c(-c3ccc4cnc(F)cc4c3)s2)cn1` [Example 9, (2-((S)-2-Amino-3-(6-(1,1-difluoroethyl)pyridin-3-yl)propylamino)-5-(3-fluoroisoquinolin-6-yl)thiazol-4-yl)methanol], on PKBα, the IC50 is less than 50 nM.

On to `N[C@H](CNc1ncc(-c2ccc3cnc(F)cc3c2)s1)Cc1ccc2c(c1)OCCO2` [Example 43, N—((S)-2-Amino-3-(2,3-dihydrobenzo[b][1,4]dioxin-6-yl)propyl)-5-(3-fluoroisoquinolin-6-yl)thiazol-2-amine], for which, at PKBα, the IC50 was less than 50 nM.
